We go through twelve molecules from patent publication US20160221974A1, “SODIUM CHANNEL MODULATORS FOR THE TREATMENT OF PAIN AND DIABETES” (CHROMOCELL CORPORATION, priority 2013, published 2016).

Bounds are passed on as bounds.

One data set deals with T1, hNaV1.7 (Homo sapiens, UniProt Q15858).
T1 construct: expressed in transfected cells
Kind of data set: FDSS Membrane Potential In-Vitro Assay. The format is cell-based. To be noted: stimulation with veratridine and scorpion venom, read-out: NaV1.7 IC50.

A further data set concerns the target T2, NaV1.7 (Homo sapiens, UniProt Q15858).
T2 construct: expressed in transfected cells
The data set can be described thus: Patchliner Electrophysiological In-Vitro Assay (NaV1.7). It counts as cell-based. The note with it: Patchliner patch clamp, HEK293, holding at V1/2. As to the method:
In vitro assays were performed in recombinant cell line that stably express a heterotrimeric protein of interest from an introduced nucleic acid encoding the alpha subunit (hNav1.7, SCN9A), the beta subunit (SCNB1) and the beta subunit (SCNB2). The cell line was engineered using Human Embryonic Kidney 293 cells as host background. Additional cell lines stably expressing recombinant Nav1.7 or Nav1.5 alpha subunit alone or in combination with various beta subunits can also be used in in-vitro assays.
(§1) The recording of sodium current from stable HEK293 cell lines expressing NaV1.7 or NaV1.5 was done on a Patchliner® instrument, Nanion Technologies. The Patchliner® is a fully automated bench-top patch clamp platform and can record simultaneously from up to eight single cells with GΩ seals.
(§2) For patch-clamp experiments, cells were grown under standard culturing conditions in Dulbecco's Modified Eagles medium supplemented with 10% fetal bovine serum, glutamine and HEPES. Cells were harvested and kept in suspension for up to 4 hours with no significant change in quality or ability to patch. Whole cell patch clamp recordings were conducted according to Nanion's standard procedure for the Patchliner®. Experiments were conducted at room temperature.
(§3) Voltage protocols were designed to establish: 1) peak current amplitude (Imax), 2) test potential (Vmax) and 3) half-inactivation potential (V1/2) for each of the eight individual cells. To determine V1/2, a standard steady-state inactivation protocol was executed using a series of fifteen 500 ms depolarizing pre-pulses in 10 mV increments (starting at −130 mV) and immediately followed by a 10 ms test pulse to Vmax. To estimate test compound affinity to the inactivated state of sodium channel (Ki), the holding potential for each cell was set automatically to the V1/2 calculated from a steady-state inactivation data. The current was activated with the following voltage protocol: holding at V1/2 for 2-5 seconds, return to the −120 mV for 5-10 ms to relieve fast inactivation, stepping to test potential (Vmax) for 10-20 ms. This voltage protocol was repeated every 10 seconds to establish the baseline with 2-3 buffer additions followed by the test compound addition. The dose-dependent inhibition was analyzed using Nanion's Data Analysis Package.

The target of another data set is T3, CYP3A4 (Homo sapiens, UniProt P08684).
T3 construct: purchased Invitrogen
T3 sequence (P08684 2-503 limits assumed): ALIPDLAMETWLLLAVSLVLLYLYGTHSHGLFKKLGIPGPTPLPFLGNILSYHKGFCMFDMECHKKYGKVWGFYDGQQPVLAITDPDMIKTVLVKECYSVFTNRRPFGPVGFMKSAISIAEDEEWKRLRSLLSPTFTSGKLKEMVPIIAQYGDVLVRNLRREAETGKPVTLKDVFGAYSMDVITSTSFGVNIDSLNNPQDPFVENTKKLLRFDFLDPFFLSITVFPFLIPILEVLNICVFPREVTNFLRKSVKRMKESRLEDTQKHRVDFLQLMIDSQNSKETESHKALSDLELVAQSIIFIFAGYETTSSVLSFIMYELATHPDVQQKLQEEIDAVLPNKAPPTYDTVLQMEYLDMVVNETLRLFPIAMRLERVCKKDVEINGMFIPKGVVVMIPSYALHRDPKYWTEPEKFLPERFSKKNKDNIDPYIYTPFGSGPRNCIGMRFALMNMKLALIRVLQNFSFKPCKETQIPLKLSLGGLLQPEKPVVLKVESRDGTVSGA
Kind of data set: In-Vitro Cytochrome P450 (CYP450) Inhibition Assay (Vivid CYP450). The format is in vitro ADME. The note with it: CYP3A4 enzyme complex (Vivid CYP450, Invitrogen), 6 μM test concentration. As to the method:
We evaluated interaction of drug candidates with cytochrome P450 enzymes which are a major determinant of drug clearance via oxidative metabolism using a high throughput compatible, fluorescence based CYP450 screening assay (Vivid® CYP450, Invitrogen) according to manufacturer's directions.
In brief, test compounds at four different concentrations (μM—6.0, 2.0, 0.7, 0.2), a positive control (Ketoconazole) and a solvent control were incubated at room temperature in unique wells of a 96-well microtiter plate with CYP3A4 enzyme complex for 20 minutes. A pre-read fluorescence (Ex−485 nm/Em−530 nm) was measured at the start of the incubation using a Tecan Safire^2 microplate reader-monochromator to determine background fluorescence. At the end of the incubation period, enzyme substrate and co-enzyme were added and the reaction was kinetically monitored for 1 hour by measuring fluorescence every minute. Effect of test compounds on inhibition of CYP3A4 metabolism of provided substrate was determined by calculating the ratio of the effective reaction rate in presence of test compound to that in the absence of inhibitor.

The subject of data set [1] is Formalin Test (pain behaviors). Kind of data set: Formalin Test (pain behaviors). The format is in vivo, rat. To be noted: relative to vehicle control; 150 μL of 1 or 2% w/v solution, topical route.
The target in the next data set is T4, NaV1.5 (Homo sapiens, UniProt Q14524).
T4 construct: expressed in transfected cells
T4 sequence (Q14524 whole entry): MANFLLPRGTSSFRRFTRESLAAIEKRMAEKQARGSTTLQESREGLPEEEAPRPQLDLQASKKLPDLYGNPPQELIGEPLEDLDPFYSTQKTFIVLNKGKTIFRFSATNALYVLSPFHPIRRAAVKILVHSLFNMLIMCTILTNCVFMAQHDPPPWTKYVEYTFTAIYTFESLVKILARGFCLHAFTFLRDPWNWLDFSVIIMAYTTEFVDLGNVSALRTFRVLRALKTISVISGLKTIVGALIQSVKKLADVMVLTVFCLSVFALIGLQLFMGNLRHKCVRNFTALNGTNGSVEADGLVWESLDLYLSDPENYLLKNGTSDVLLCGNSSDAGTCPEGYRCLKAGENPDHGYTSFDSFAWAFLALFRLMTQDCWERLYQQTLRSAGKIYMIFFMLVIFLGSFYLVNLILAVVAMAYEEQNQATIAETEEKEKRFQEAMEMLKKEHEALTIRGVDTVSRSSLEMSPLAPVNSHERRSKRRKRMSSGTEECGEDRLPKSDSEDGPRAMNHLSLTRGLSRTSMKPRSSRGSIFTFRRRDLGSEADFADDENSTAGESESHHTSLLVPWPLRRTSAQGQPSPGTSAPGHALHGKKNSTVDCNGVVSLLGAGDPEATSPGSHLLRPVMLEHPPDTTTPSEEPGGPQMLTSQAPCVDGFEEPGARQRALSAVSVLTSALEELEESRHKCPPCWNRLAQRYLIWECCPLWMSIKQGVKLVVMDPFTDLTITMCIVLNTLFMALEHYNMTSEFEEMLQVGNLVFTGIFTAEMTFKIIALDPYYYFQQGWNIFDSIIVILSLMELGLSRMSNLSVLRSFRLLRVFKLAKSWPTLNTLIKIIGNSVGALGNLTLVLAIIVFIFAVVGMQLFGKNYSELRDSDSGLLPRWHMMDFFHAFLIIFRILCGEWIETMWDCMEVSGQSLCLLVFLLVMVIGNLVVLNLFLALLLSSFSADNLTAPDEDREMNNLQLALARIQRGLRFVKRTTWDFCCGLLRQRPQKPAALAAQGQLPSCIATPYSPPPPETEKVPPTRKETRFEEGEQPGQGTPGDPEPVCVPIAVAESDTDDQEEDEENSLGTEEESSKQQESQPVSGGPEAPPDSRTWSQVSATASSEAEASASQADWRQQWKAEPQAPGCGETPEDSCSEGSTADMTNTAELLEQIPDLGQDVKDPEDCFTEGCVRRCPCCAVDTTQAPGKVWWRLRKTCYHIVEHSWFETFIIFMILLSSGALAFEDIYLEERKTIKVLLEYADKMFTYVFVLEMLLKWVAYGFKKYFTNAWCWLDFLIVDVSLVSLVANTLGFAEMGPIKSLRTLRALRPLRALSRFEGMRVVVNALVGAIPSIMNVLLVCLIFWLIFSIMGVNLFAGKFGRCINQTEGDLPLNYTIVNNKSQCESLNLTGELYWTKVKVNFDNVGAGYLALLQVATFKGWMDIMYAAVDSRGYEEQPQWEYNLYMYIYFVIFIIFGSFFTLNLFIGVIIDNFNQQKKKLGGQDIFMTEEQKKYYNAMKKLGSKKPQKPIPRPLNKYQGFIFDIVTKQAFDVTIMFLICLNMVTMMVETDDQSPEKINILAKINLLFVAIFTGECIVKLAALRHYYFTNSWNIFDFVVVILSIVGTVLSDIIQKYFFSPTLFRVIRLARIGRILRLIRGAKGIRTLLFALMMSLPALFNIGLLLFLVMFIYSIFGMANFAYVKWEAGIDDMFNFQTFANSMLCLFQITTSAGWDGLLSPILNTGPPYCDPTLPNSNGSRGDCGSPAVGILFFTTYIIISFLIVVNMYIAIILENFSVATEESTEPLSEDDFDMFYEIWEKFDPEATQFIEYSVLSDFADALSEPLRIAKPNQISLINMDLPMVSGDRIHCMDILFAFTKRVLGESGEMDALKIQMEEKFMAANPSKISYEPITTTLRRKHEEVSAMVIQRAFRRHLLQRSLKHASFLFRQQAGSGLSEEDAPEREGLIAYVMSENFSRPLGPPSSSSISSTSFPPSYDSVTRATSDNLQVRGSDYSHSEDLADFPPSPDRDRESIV
Kind of data set: Patchliner Electrophysiological In-Vitro Assay (NaV1.5). The format is cell-based. To be noted: Patchliner patch clamp, HEK293. As to the method: as §1, §2, §3
On the technique in general: In patch-clamp work, channel activity is measured electrically.

Data set [2] has as its system Partial Sciatic Nerve Ligation (PSNL) model. The data set can be described thus: Partial Sciatic Nerve Ligation (PSNL) model, behavioral tests. It counts as in vivo, male Sprague-Dawley rats. To be noted: oral route, relative to vehicle control, measured 30 minutes post dose. The text has this:
250-350 g male Sprague-Dawley rats from appropriate animal resources were anesthetized with 2.5% isoflurane. A hind leg was shaved, and the skin was sterilized with 0.5% iodine and 75% alcohol. All surgical instruments were sterilized before surgery and between animals. An incision (1 cm) was made at the middle of the thigh in parallel with the muscle and sciatic nerve distribution. The muscle was exposed and dissected at the joint of two muscles (biceps femoris) indicated by the light colored (white) fascia line. The sciatic nerve was just beneath the muscle and was hooked out using an 18-20 G feeding needle (90 degree curved); the sciatic nerve was flat on the feeding needle and approximately one-half the diameter of the nerve is tightly ligated with 7-0 silk suture. A response of the injured leg twitch indicates the success of ligation. After checking hemostasis, bupivicaine 0.1-0.2 ml (0.125%) was given at the incision area, the muscle and the adjacent fascia are closed with 5-0 absorbable sutures. The skin was sutured with absorbable suture and tissue glue. The control group using sham surgery animals (about 8-10 animals) underwent the same surgical procedure but with no nerve ligation. Animals were returned to their home cage after recovery from anesthesia.
The analgesic effect of the test compound was expressed as a percent recovery (% Recovery) relative to the sham control group baseline and calculated according to the formula:
% Recovery=100%−{[(sham mean−test compound mean)/(sham mean−vehicle mean)]×100%}
wherein “sham mean” refers to average score in the sham-operated group; “test compound mean” refers to average score in the PSNL-group (animals with partial sciatic nerve ligation) or diabetic group (animals treated with STZ) treated with a test compound; “vehicle mean” refers to average score in the PSNL-group or diabetic group treated with vehicle only. The above formula was used to obtain data for the following in vivo behavioral tests.
The following behavioral tests were conducted (i.e., plantar test, paw pressure test, and von Frey test) started on day 3 and thereafter once weekly following surgery or use of a diabetic inducer. […]
Rats were placed on the glass surface of a thermal testing apparatus (Model 336, IITC/Life Science Instruments, Woodland Hills, Calif.) and were allowed to acclimate for 10 min before testing on the glass surface at room temperature. […] The paw withdrawal latency was recorded by a digital timer. The thermal threshold was determined as the mean withdrawal latency from two to three consecutive trials of both hindpaws. […]
Animals were placed under clear plastic boxes above a wire mesh floor, which allowed full access to the paws. […] Mechanical paw withdrawal thresholds (PWTs) were measured with the up-down testing paradigm. […]

What is called IC50 is the concentration needed to halve the response being measured. By inhibition is commonly meant the relative decrease from the control value, in per cent. A low value points to little suppression.

T2 sequence (Q15858 whole entry): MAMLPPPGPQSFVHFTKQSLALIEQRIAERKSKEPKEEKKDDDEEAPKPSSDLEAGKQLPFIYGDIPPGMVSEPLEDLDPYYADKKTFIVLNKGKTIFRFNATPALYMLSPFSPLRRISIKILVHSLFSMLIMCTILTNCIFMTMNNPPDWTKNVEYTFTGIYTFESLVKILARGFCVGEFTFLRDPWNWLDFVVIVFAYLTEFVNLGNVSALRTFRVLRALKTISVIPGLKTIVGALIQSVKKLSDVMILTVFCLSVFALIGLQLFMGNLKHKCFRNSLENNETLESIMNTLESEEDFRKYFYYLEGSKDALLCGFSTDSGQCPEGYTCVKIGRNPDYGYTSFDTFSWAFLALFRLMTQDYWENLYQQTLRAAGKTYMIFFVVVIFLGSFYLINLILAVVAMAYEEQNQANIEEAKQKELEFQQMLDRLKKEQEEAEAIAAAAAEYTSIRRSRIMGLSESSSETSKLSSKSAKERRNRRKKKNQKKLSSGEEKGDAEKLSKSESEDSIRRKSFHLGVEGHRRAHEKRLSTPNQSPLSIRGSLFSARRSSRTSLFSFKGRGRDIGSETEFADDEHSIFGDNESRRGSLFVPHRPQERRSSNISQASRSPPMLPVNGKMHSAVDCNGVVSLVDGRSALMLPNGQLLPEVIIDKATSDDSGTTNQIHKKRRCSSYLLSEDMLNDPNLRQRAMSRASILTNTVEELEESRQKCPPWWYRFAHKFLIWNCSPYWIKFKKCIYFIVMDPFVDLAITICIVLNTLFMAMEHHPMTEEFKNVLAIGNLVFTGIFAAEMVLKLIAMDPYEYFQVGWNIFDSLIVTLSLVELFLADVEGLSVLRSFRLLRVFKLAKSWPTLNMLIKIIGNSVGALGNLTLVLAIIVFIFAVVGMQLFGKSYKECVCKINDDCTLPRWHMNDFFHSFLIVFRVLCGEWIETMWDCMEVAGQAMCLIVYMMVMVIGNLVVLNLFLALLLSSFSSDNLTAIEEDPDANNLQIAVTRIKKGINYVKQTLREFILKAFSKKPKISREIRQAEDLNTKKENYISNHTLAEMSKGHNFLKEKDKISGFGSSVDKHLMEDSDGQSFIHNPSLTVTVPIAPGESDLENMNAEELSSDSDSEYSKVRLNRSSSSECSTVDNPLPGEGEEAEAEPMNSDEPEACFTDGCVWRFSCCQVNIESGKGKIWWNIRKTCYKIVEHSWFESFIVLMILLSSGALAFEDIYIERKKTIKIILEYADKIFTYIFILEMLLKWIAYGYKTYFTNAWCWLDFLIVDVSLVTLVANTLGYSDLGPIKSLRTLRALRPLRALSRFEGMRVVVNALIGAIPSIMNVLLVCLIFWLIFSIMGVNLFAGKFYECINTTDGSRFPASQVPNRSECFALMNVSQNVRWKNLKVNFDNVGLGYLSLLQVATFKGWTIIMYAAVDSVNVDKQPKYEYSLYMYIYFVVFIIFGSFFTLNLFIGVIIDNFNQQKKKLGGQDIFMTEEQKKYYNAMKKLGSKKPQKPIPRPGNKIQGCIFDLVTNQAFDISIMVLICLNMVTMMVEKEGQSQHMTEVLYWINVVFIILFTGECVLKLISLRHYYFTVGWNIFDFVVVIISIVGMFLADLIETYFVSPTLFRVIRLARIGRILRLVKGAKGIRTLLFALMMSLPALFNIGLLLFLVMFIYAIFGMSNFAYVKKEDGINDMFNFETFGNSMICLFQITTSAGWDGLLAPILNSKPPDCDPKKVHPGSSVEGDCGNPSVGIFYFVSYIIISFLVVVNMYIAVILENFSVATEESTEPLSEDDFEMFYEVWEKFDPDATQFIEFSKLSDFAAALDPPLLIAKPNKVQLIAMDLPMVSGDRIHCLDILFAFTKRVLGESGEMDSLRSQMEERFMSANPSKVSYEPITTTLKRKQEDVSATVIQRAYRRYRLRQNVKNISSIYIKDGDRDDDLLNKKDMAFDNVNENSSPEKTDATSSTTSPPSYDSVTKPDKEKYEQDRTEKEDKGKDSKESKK
T2 sequence (Q07699 19-218 partner): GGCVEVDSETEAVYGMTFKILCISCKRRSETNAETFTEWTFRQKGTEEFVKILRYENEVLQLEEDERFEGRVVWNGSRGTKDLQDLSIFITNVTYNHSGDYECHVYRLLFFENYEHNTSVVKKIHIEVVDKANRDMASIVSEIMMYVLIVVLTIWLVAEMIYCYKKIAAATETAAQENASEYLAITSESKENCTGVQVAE
T2 sequence (O60939 30-215 partner): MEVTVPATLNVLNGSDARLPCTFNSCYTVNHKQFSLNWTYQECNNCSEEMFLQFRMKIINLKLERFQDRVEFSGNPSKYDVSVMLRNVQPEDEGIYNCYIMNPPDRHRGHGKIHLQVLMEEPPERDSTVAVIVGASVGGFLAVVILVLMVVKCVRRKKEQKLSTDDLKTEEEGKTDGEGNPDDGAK
T1 sequence (Q15858 whole entry): as the sequence (Q15858 whole entry) above
T1 sequence (Q07699 19-218 partner): as the sequence (Q07699 19-218 partner) above
T1 sequence (O60939 30-215 partner): as the sequence (O60939 30-215 partner) above

`O=C(O)CCNCCCc1cc(Cl)ccc1Oc1cc(F)c(S(=O)(=O)Nc2ncns2)cc1Cl` [Compound 12, 3-((3-(2-(4-(N-(1,2,4-thiadiazol-5-yl)sulfamoyl)-2-chloro-5-fluorophenoxy)-5-chlorophenyl)propyl)amino)propanoic acid]: on hNaV1.7, the IC50 is less than 0.13 µM. Further, the half-maximal inhibitory concentration (IC50) at NaV1.7 is less than 0.1 µM. At CYP3A4, this molecule returned an inhibition at 1 hour, 6 µM of 50 to 100%. In addition, in data set [1], the “reduction in pain response (formalin assay phase 2)” value is given as 29-43% and the “reduction in pain response (formalin assay, phase 1)” value is recorded as 13-24%.

Take `NC(CCNCCCc1cc(Cl)ccc1Oc1cc(F)c(S(=O)(=O)Nc2cscn2)cc1Cl)C(=O)O` (stereo not shown) [Compound 17, 2-amino-4-((3-(5-chloro-2-(2-chloro-5-fluoro-4-(N-(thiazol-4-yl)sulfamoyl)phenoxy)phenyl)propyl)amino)butanoic acid]: the IC50 on hNaV1.7 was in the range of 1 to 20 µM; on NaV1.7, 0.1 to 1 µM. The molecule further had an inhibition at 1 hour, 6 µM at CYP3A4 of 0 to 25%.

Take `O=C(O)CNCCCc1cc(Cl)ccc1Oc1cc(F)c(S(=O)(=O)Nc2nccs2)cc1F` [Compound 18, 2-((3-(5-chloro-2-(2,5-difluoro-4-(N-(thiazol-2-yl)sulfamoyl)phenoxy)phenyl)propyl)amino)acetic acid]: the IC50 was in the range of 0.13 to 1 µM on hNaV1.7 and 0.1 to 1 µM on NaV1.7. This molecule came in with an inhibition at 1 hour, 6 µM at CYP3A4 of 0 to 25%.

Regarding `O=C(O)C1CCCN(CCCc2cc(Cl)ccc2Oc2cc(F)c(S(=O)(=O)Nc3cscn3)cc2Cl)C1` (stereo not shown) [Compound 19, 1-(3-(5-chloro-2-(2-chloro-5-fluoro-4-(N-(thiazol-4-yl)sulfamoyl)phenoxy)phenyl)propyl)piperidine-3-carboxylic acid], the figures for the IC50 on hNaV1.7 and at NaV1.7 were 1 to 20 µM and 0.1 to 1 µM, respectively. The inhibition at 1 hour, 6 µM against CYP3A4 lay in the range of 0 to 25%.

On to `O=C(O)CNCCCc1ccccc1Oc1cc(F)c(S(=O)(=O)Nc2ncns2)cc1Cl` [Compound 20, 2-((3-(2-(4-(N-(1,2,4-thiadiazol-5-yl)sulfamoyl)-2-chloro-5-fluorophenoxy)phenyl)propyl)amino)acetic acid], for which the IC50 is 0.13 to 1 µM on hNaV1.7 and less than 0.1 µM at NaV1.7. Further, the inhibition at 1 hour, 6 µM on CYP3A4 lay in the range of 50 to 100%.

As to `O=C(O)CNCCCc1cc(Cl)ccc1Oc1cc(F)c(S(=O)(=O)Nc2cscn2)cc1F` [Compound 21, 2-((3-(5-chloro-2-(2,5-difluoro-4-(N-(thiazol-4-yl)sulfamoyl)phenoxy)phenyl)propyl)amino)acetic acid], the results for the IC50 on hNaV1.7 and on NaV1.7 were 1 to 20 µM and 0.1 to 1 µM, respectively. In addition, the inhibition at 1 hour, 6 µM at CYP3A4 is 0 to 25%.

Regarding `O=C(O)CCNCCCc1cc(Cl)ccc1Oc1cc(F)c(S(=O)(=O)Nc2cscn2)cc1F` [Compound 22, 3-((3-(5-chloro-2-(2,5-difluoro-4-(N-(thiazol-4-yl)sulfamoyl)phenoxy)phenyl)propyl)amino)propanoic acid], the IC50 fell in the range of 1 to 20 µM on hNaV1.7 and 0.1 to 1 µM at NaV1.7. This molecule also returned an inhibition at 1 hour, 6 µM on CYP3A4 of 0 to 25%.

Turning to `O=C(O)C1CCN(CCCc2cc(Cl)ccc2Oc2cc(F)c(S(=O)(=O)Nc3ncns3)cc2Cl)CC1` [Compound 32, 1-(3-(2-(4-(N-(1,2,4-thiadiazol-5-yl)sulfamoyl)-2-chloro-5-fluorophenoxy)-5-chlorophenyl)propyl)piperidine-4-carboxylic acid], the results for the IC50 on hNaV1.7 and at NaV1.7 were less than 0.13 µM and less than 0.1 µM, respectively. Moreover, the inhibition at 1 hour, 6 µM against CYP3A4 fell in the range of 50 to 100%.

As for `CS(=O)(=O)CCNCCCc1cc(Cl)ccc1Oc1cc(F)c(S(=O)(=O)Nc2cscn2)cc1Cl` [Compound 44, 5-chloro-4-(4-chloro-2-(3-((2-(methylsulfonyl)ethyl)amino)propyl)phenoxy)-2-fluoro-N-(thiazol-4-yl)benzenesulfonamide], the IC50 was less than 0.1 µM at NaV1.7 and greater than 10 µM against NaV1.5.

For the molecule `C#CCN(CCCc1cc(Cl)ccc1Oc1cc(F)c(S(=O)(=O)Nc2nccs2)cc1Cl)CC(=O)O` [Compound 54, 2-((3-(5-chloro-2-(2-chloro-5-fluoro-4-(N-(thiazol-2-yl)sulfamoyl)phenoxy)phenyl)propyl)(prop-2-yn-1-yl)amino)acetic acid], the “effect in the tactile allodynia test” value in data set [2] is recorded as “no significant effect”.

With `O=S(=O)(Nc1nccs1)c1cc(Cl)c(Oc2ccccc2-c2cnn3c2NCCC3)cc1F` [Compound 56, 5-chloro-2-fluoro-4-(2-(4,5,6,7-tetrahydropyrazolo[1,5-a]pyrimidin-3-yl)phenoxy)-N-(thiazol-2-yl)benzenesulfonamide], the IC50 is 0.5 to 1 µM at hNaV1.7 and greater than 10 µM on NaV1.5.

For the molecule `O=S(=O)(Nc1cscn1)c1cc(Cl)c(Oc2ccccc2-c2cnn3c2NCCC3)cc1F` [Compound 58, 5-chloro-2-fluoro-4-(2-(4,5,6,7-tetrahydropyrazolo[1,5-a]pyrimidin-3-yl)phenoxy)-N-(thiazol-4-yl)benzenesulfonamide], the IC50 on hNaV1.7 was 1 to 20 µM; on NaV1.7 it was 1 to 10 µM; at NaV1.5 it was greater than 10 µM.
